Patent US7488820B2, “Naphthofluorescein-based metal sensors, and methods of making and using the same” (Massachusetts Institute of Technology, priority 2004, dated 2009)

What was measured:
[1] = Ratiometric fluorescence responses (F624/F528) of MS4 and MS5 to various metal ions; details: 5 μM probe, 50 equiv metal ion, 50 mM HEPES, 100 mM KCl, pH 8, excitation 499 nm
Method: (§1) FIG. 9 depicts the ratiometric fluorescence spectroscopic responses of MS4 to various metal ions. Bars represent the ratio of fluorescence intensities collected at 624 and 528 nm (F624/F528). All spectra were acquired in 50 mM HEPES, 100 mM KCl, pH 8. Grey bars represent the addition of an excess of the appropriate metal ion (50 equiv metal ion of interest) to a 5 μM solution of MS4. Dark grey bars represent the subsequent addition of 50 equiv Hg^2+ to the solution. Excitation was provided at 499 nm.
as §1, with “FIG. 10” for “FIG. 9”, “of MS5” for “of MS4”, “of MS5.” for “of MS4.”
Millipore water was used to prepare all aqueous solutions. […] Fluorescence spectra were collected by using a Photon Technology International (Lawrenceville, N.J.) Quanta Master 4L-format scanning spectrofluorimeter equipped with an LPS-220B 75-W xenon lamp and power supply, A-1010B lamp housing with integrated igniter, switchable 814 photon-counting/analog PMT detector, and a MD-5020 motor driver. […]

[2] = Fluorescence spectroscopy: quantum yield and ratiometric emission response to Zn2+; format: physicochemical; details: pH 7.5
Method: FIG. 3. Ratiometric fluorescence spectroscopic response of 20 μM ZNP1 to buffered Zn^2+ solutions. Spectra were acquired in 50 mM HEPES, 100 mM KCl, pH 7.5. Excitation was provided at 499 nm. A standard EDTA/Ca^2+/Zn^2+ dual-metal buffer system was employed to deliver controlled concentrations of buffered free Zn^2+. The spectra shown are for free Zn^2+ buffered at 0, 0.17, 0.42, 0.79, 1.3, 2.1, 3.4, 5.6, and 10.2 nM, respectively.
Quantum yield, Φ, may be obtained by comparison of the integrated area of the corrected emission spectrum of the sample with that of a reference solution. A preferred reference solution is a solution of fluorescein in 0.1 N NaOH, quantum efficiency 0.95. The concentration of the reference is adjusted to match the absorbance, Abs, of the test sample. The quantum yields may be calculated using the following equation:
ZNP1 was evaluated at physiological ionic strength and pH [50 mM HEPES (4-(2-hydroxyethyl)-1-piperazineethanesulfonic acid), 100 mM KCl, pH 7.5] in the presence of EDTA (ethylenediaminetetraacetic acid) to scavenge adventitious metal ions. […] The quantum yield for apo ZNP1 is 0.02.
The observed changes in absorption and emission spectra occur up to a 1:1 [Zn^2+][ZNP1] ratio, indicating the likely formation of a 1:1 complex. Upon addition of Zn^2+, the visible absorption profile of the ZNP1 chemosensor red shifts to a single broad peak centered at 547 nm (ε=2.2×10^4 M^−1cm^−1). Excitation at 499 nm produces a fluorescence spectrum featuring one dominant emission band centered at 624 nm with a minor component centered at 545 nm (FIG. 3). The quantum yield for Zn^2+-ZNP1 complex is 0.05. […] The ratio of naphthofluorescein- to fluorescein-like emission intensities (λ624/λ528) upon 499-nm excitation varies from 0.4 in the absence of Zn^2+ to 7.1 in the presence of Zn^2+, an 18-fold increase.
(§2) Millipore water was used to prepare all aqueous solutions, which were passed through 0.2 um cellulose filters prior to use. All spectroscopic measurements were performed under simulated physiological conditions using buffer solutions containing 50 mM HEPES, 4-(2-hydroxyethyl)-1-piperazineethanesulfonic acid, and 100 mM KCl adjusted to pH 7.5. A glass electrode (Orion), calibrated prior to each use, was used to determine solution pH. Solutions of Zn^2+ were prepared from 100 mM stock solutions of ZnCl2 in water. Absorption spectra were recorded on a Hewlett-Packard 8453A diode array spectrophotometer, and fluorescence spectra on a Photon Technology International (PTI) Quanta Master 4 L-format scanning spectrofluorimeter equipped with an LPS-220B 75-watt xenon lamp and power supply, A-1010B lamp housing with integrated igniter, switchable 814 photon-counting/analog photomultiplier detection unit, and MD-5020 motor driver. Samples for absorption and emission measurements were contained in 1 cm×1 cm quartz cuvettes (3.5 mL volume, Stama). The experiments for measuring quantum yields, apparent dissociation constants (Kd), and metal ion selectivities were performed by using standard protocols. Quantum yields were determined by reference to fluorescein in 0.1 N NaOH (Φ=0.95). Confocal fluorescence imaging experiments were performed with a Zeiss LSM510 laser scanning microscopy system containing an Axiovert 200M inverted fluorescence microscope. The microscope was equipped with an argon ion laser (488-nm excitation) and objective lenses (100×), and scanning was performed using the META detection system operating in lambda mode (Zeiss) with 10.7 nm collection windows. During imaging measurements, cell samples were kept on the microscope stage in a CTI-3700 incubator at 37° C. under 5% CO2. Additions of Zn^2+ as the pyrithione complex (2-mercaptopyridine N-oxide), TPEN [N,N,N′,N′-tetra(2-picolyl)ethylenediamine], or SNOC (S-nitrosocysteine) to cell samples were performed directly on the microscope stage by bath application to the media. SNOC was prepared immediately before use.

[3] = Metal ion selectivity of the ratiometric fluorescence response (F624/F528) of ZNP1
Method: FIG. 4. Ratiometric fluorescence spectroscopic responses of ZNP1 to various metal ions. Bars represent the ratio of fluorescence intensities collected at 624 and 528 nm (F624/F528). All spectra were acquired in 50 mM HEPES, 100 mM KCl, pH 7.5. White bars represent the addition of an excess of the appropriate metal ion (2 mM for Ca^2+ and Mg^2+, 100 μM for all other metal ions) to a 10 μM solution of ZNP1. Grey bars represent the subsequent addition of 100 μM Zn^2+ to the solution. Excitation was provided at 499 nm.
The emission profiles of apo or Zn^2+-bound ZNP1 are unperturbed in the presence of 2 mM Ca^2+ or Mg^2+, indicating a degree of selectivity for Zn^2+ over these biologically competing alkaline earth cations.
as §2, with “SNOC was prepared immediately before use.” left out

[4] = test system: COS-7 cells; test: Cell membrane permeability and ratio confocal fluorescence imaging of intracellular Zn2+ in live COS-7 cells; format: cell-based
Method: FIG. 5. Ratio confocal fluorescence imaging in COS-7 cells using the Zeiss LSM510 META system operating in the lambda mode. Fluorescence was collected in 10.7 nm optical windows centered at 612 and 526 nm. Pseudocolor figures depict the ratio of fluorescence intensities at these two emission wavelengths. (a) Ratio confocal fluorescence images of live COS-7 cells labeled with ZNP1. Incubation of cells with 20 μM ZNP1-Ac for 20 min at 37° C. (left), ZNP1-stained cells loaded with 50 μM Zn(pyrithione)2 for 5 min (middle), and reversal of the cytosolic ratio enhancements with 100 μM TPEN (right). Confocal images were taken from a middle optical section (vertical dimension) of the cell samples. (b) Confocal fluorescence images of NO-triggered release of endogenous Zn^2+ in live COS-7 cells. Incubation of cells with 20 μM ZNP1-Ac for 20 min at 37° C. (left), ZNP1-stained cells treated with 10 mM SNOC (S-nitrosocysteine, middle) for 1 hr, and reversal of the observed ratio increases with 2 mM TPEN (right). Confocal images were taken from a middle optical section (vertical dimension) of the cell samples.
We therefore prepared the non-fluorescent diacetate derivative of ZNP1, ZNP1-Ac, anticipating that this more lipophilic derivative would permeate the cell and be transformed to fluorescent ZNP1 by the action of intracellular esterases. […] Ratiometric fluorescence imaging of ZNP1-stained cells is readily performed by using the META detection system operating in lambda mode with optical windows centered at 612 and 526 nm. […] Prompt increases in the ratio of cytosolic fluorescence intensities collected at 612 and 526 nm are observed upon the addition of exogenous Zn^2+ (50 μM) carried by the ionophore pyrithione (2-mercaptopyridine N-oxide, FIG. 5a). […]
The successful use of ZNP1 for monitoring changes in intracellular Zn^2+ concentrations using ratiometric fluorescence imaging led us to apply this probe for detecting endogenous pools of intracellular Zn^2+. […]

SMILES	selectivity for Hg2+ over other metal ions (in words) [1]	time of fluorescence response to buffered Zn2+ ([2]; 20 μM probe, free Zn2+ 0-10.2 nM)	increase of λ624/λ528 emission ratio on Zn2+ binding ([2]; 499-nm excitation) [fold]	ratio of emission intensities λ624/λ528 in the absence of Zn2+ ([2]; 499-nm excitation)	ratio of emission intensities λ624/λ528 in the presence of Zn2+ ([2]; 499-nm excitation)	quantum yield, Zn2+ complex ([2]; Zn2+-bound, 50 mM HEPES, 100 mM KCl)	quantum yield, apo ([2]; no Zn2+, EDTA present, 50 mM HEPES, 100 mM KCl, reference fluorescein in 0.1 N NaOH)	selectivity for Zn2+ over other metal ions (in words) [3]	emission profiles of apo or Zn2+-bound probe in the presence of Ca2+ or Mg2+ ([3]; 10 μM probe, 2 mM Ca2+ or Mg2+, pH 7.5)	ratiometric response to subsequent addition of 100 μM Zn2+ in the presence of first-row transition metal ions ([3]; 10 μM probe, Cu2+, Ni2+, Co2+, Fe2+, Mn2+ 100 μM, then 100 μM Zn2+)	change in emission ratio with Cu2+, Ni2+, Co2+, Fe2+, Mn2+ ([3]; 10 μM probe, metal ions at 10-fold excess over probe)	permeability to cell membranes ([4]; initial experiments)	monitoring of intracellular [Zn2+] changes (612/526 nm ratio) ([4]; stained COS-7 cells, 50 μM Zn2+/pyrithione, then 100 μM TPEN)	detection of NO-triggered release of endogenous Zn2+ (612/526 nm ratio) ([4]; stained COS-7 cells, 10 mM S-nitrosocysteine, reversed by 2 mM TPEN)
CCSCCN(Cc1ccccn1)Cc1ccccc1NCc1c2oc3c(ccc4cc(O)ccc43)c(-c3ccccc3C(=O)O)c-2ccc1=O [MS4]	selectivity for Hg^2+ over metal ions such as Na^+, Ca^2+, and Mg^2+	–	–	–	–	–	–	–	–	–	–	–	–	–
CCSCCN(CCSCC)Cc1ccccc1NCc1c2oc3c(ccc4cc(O)ccc43)c(-c3ccccc3C(=O)O)c-2ccc1=O [MS5, 2-{11-[(2-{[Bis-(2-ethylsulfanylethyl)amino]methyl}phenylamino)methyl]-3-hydroxy-10-oxo-10H-benzo[c]xanthen-7-yl}benzoic acid]	selectivity for Hg^2+ over metal ions such as Na^+, Ca^2+, and Mg^2+	–	–	–	–	–	–	–	–	–	–	–	–	–
O=C(O)c1ccccc1-c1c2ccc(=O)c(CNc3ccccc3CN(Cc3ccccn3)Cc3ccccn3)c-2oc2c1ccc1cc(O)ccc12 [ZNP1, 4-[12-{Bis(2-pyridylmethyl)aminomethyl}-N-methylaniline]-3,10-dibenzoate-spiro[7H-benzo[c]xanthen-7,1′(3′H)-isobenzofuran]-3′-one]	–	immediately upon mixing	18	0.4	7.1	0.05	0.02	selectivity for Zn^2+ over metal ions such as Na^+, K^+, Ca^2+, and Mg^2+	unperturbed	only the sample containing Mn^2+ affords a ratiometric fluorescence response	no discernable change in emission ratios	impermeable to cell membranes	can monitor changes in intracellular [Zn^2+] reversibly	establishes a rise in intracellular [Zn^2+]
